Assay results as given in patent US20250320213A1, “Nitrogen-Containing Heterocyclic Compounds” (Pfizer Inc., priority 2024, published 2025).
pEC50, pIC50: −log10 of the molar value.

Key:
[1] = test system: CCL17 secretion in peripheral human whole blood; assay: Human Whole Blood (HWB) CCL17 TR-FRET Assay (IL-13 stimulated CCL17 secretion); type: cell-based; settings: Homo sapiens, 48 h, human whole blood
How it was run: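 Compounds are titrated (11 points, 3-fold, duplicate) into fresh heparinized human whole blood and held 2 h at 37 °C before IL-13 challenge (10 ng/mL final). After 48 h at 37 °C, serum CCL17 is measured by TR-FRET sandwich assay and IC50 values are calculated.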

STAT6 = target: T1, STAT6 (Homo sapiens, UniProt P42226); assay: STAT6 Reporter Luciferase Assay (IL-13 stimulated HaCaT keratinocyte NanoLuc reporter cells); type: cell-based; settings: IL-13 stimulated HaCaT STAT6 NanoLuc reporter cells; read-out: Reporter EC50
T1 construct: stably transfected HaCaT keratinocyte cell line, which expresses NanoLuc luciferase reporter gene under the transcriptional control of the STAT6 responsive promoter; endogenous in cells; host or cells: HaCaT keratinocyte reporter cell line (stably transfected with a NanoLuc reporter)
T1 sequence (P42226 1-847): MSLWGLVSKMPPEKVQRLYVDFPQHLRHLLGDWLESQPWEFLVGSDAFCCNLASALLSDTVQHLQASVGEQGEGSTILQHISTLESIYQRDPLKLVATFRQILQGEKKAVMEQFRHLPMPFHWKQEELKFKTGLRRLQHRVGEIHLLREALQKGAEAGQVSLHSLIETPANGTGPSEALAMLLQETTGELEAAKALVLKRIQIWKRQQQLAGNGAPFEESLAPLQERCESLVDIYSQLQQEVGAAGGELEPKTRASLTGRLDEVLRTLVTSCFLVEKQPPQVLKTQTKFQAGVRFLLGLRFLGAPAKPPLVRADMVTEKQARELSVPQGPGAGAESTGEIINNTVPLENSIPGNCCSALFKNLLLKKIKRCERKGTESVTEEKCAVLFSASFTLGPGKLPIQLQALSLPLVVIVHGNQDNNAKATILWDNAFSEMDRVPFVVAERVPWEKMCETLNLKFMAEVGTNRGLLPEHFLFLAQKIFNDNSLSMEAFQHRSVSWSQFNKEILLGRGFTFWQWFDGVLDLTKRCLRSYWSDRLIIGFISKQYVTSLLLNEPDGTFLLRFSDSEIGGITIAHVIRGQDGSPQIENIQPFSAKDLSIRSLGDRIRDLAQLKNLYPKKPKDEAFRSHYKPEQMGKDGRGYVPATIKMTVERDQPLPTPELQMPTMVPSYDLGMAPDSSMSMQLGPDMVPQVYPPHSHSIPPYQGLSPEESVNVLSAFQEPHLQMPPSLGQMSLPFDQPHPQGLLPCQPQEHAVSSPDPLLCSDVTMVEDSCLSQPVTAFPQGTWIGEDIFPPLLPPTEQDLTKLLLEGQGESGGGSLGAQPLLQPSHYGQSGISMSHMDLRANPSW
How it was run: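 Luminescence from a NanoLuc reporter driven by the STAT6-responsive IL-13Ra2 promoter in HaCaT keratinocytes serves as the read-out. Compounds are given 2 h before a 4 h stimulation with 0.12 nM IL-13.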

| Compound | pIC50 ([1]; IL-13 stimulated) | pEC50 (STAT6) | pIC50 ([1]; 10 ng/mL IL13, 48 hours) |
| --- | --- | --- | --- |
| CNC(=O)Nc1ccc(CNC(=O)c2n[nH]c3c2CN(c2ccc(C(=O)N(C)C)cn2)CC3)cc1 [Example 526, 5-(5-(dimethylcarbamoyl)pyridin-2-yl)-N-(4-(3-methylureido)benzyl)-4,5,6,7-tetrahydro-1H-pyrazolo[4,3-c]pyridine-3-carboxamide] | 5.69 | 5.40 | – |
| CC(C)n1nc(C(=O)NCc2ccc(NC(=O)N(C)C)cn2)c2c1C[C@H](C)N(c1ncc(C(=O)N(C)C)cn1)C2 [Example 533, (S)-5-(5-(dimethylcarbamoyl)pyrimidin-2-yl)-N-((5-(3,3-dimethylureido)pyridin-2-yl)methyl)-1-isopropyl-6-methyl-4,5,6,7-tetrahydro-1H-pyrazolo[4,3-c]pyridine-3-carboxamide] | – | 8.30 | 7.74 |
| CC(C)n1nc(C(=O)NCc2ccc(NC(=O)N(C)C)cn2)c2c1C[C@H](C)N(c1ccc(C(=O)N(C)C)cn1)C2 [Example 535, (S)-5-(5-(dimethylcarbamoyl)pyridin-2-yl)-N-((5-(3,3-dimethylureido)pyridin-2-yl)methyl)-1-isopropyl-6-methyl-4,5,6,7-tetrahydro-1H-pyrazolo[4,3-c]pyridine-3-carboxamide] | – | 8.30 | 7.89 |
| CC(C)n1nc(C(=O)NCc2ccc(-c3ncc[nH]3)cc2)c2c1C[C@H](C)N(c1ccc(C(=O)N(C)C)cn1)C2 [Example 536, (S)-N-(4-(1H-imidazol-2-yl)benzyl)-5-(5-(dimethylcarbamoyl)pyridin-2-yl)-1-isopropyl-6-methyl-4,5,6,7-tetrahydro-1H-pyrazolo[4,3-c]pyridine-3-carboxamide] | – | 8.40 | 7.51 |

Continued, values first:

| pIC50 ([1]; IL-13 stimulated) | pEC50 (STAT6) | pIC50 ([1]; 10 ng/mL IL13, 48 hours) | Compound |
| --- | --- | --- | --- |
| 7.47 | 8.70 | – | CNC(=O)Nc1ccc(CNC(=O)c2nn(C(C)C)c3c2CN(c2ccc(-n4c(C)nn(C)c4=O)cn2)C[C@@H]3C)cc1 [Example 521, (S)-5-(5-(1,3-dimethyl-5-oxo-1,5-dihydro-4H-1,2,4-triazol-4-yl)pyridin-2-yl)-1-isopropyl-7-methyl-N-(4-(3-methylureido)benzyl)-4,5,6,7-tetrahydro-1H-pyrazolo[4,3-c]pyridine-3-carboxamide] |
| 8.15 | 8.70 | – | CC(C)n1nc(C(=O)NCc2ccc(NC(=O)N3CCNCC3)cc2)c2c1[C@@H](C)CN(c1ccc(C(=O)N(C)C)cc1)C2 [Example 525, (S)-5-(4-(dimethylcarbamoyl)phenyl)-1-isopropyl-7-methyl-N-(4-(piperazine-1-carboxamido)benzyl)-4,5,6,7-tetrahydro-1H-pyrazolo[4,3-c]pyridine-3-carboxamide] |
| – | 9.70 | 8.22 | CC(C)n1nc(C(=O)NCc2ccc(NC(=O)N(C)C)cc2)c2c1[C@@H](C)CN(c1ccc(N3CCCC3=O)cn1)C2 [Example 530, (S)—N-(4-(3,3-Dimethylureido)benzyl)-1-isopropyl-7-methyl-5-(5-(2-oxopyrrolidin-1-yl)pyridin-2-yl)-4,5,6,7-tetrahydro-1H-pyrazolo[4,3-c]pyridine-3-carboxamide] |
| – | 7.48 | 6.81 | CNC(=O)c1ccc(CNC(=O)c2nn(C(C)C)c3c2CN(c2ncc(C(=O)N(C)C)cn2)[C@@H](C)C3)cc1 [Example 534, (S)-5-(5-(dimethylcarbamoyl)pyrimidin-2-yl)-1-isopropyl-6-methyl-N-(4-(methylcarbamoyl)benzyl)-4,5,6,7-tetrahydro-1H-pyrazolo[4,3-c]pyridine-3-carboxamide] |
| – | 7.57 | 7.12 | CNC(=O)c1ccc(CNC(=O)c2nn(C(C)C)c3c2CN(c2ccc(C(=O)N(C)C)cn2)[C@@H](C)C3)cc1 [Example 540, (S)-5-(5-(dimethylcarbamoyl)pyridin-2-yl)-1-isopropyl-6-methyl-N-(4-(methylcarbamoyl)benzyl)-4,5,6,7-tetrahydro-1H-pyrazolo[4,3-c]pyridine-3-carboxamide] |
